Tests used:
[1] = tested on: human immunodeficiency virus; settings: cited from earlier work; for inhibition of viral replication: in vitro
[2] = tested on: HIV-1zmb high/rapid strain; assay: Indirect immunofluorescence (IF), HIV-specific antigens on infected cells; assay type: cell-based; settings: 3rd day after infecting
Source text: (§1) In all experiments the suspensional T-lymphoblastoid cell line MT-4 was used. Passages have been carried out every three days for achieving the initial cell concentration at about 4-5·10^5 cells ml^−1.
(§2) HIV-1zmb high/rapid strain with the titer more than 6.0 log TCID50 isolated in Belarus has been used in the tests.
(§3) The tests have been carried out under therapeutic circuit when the testing compound and virus were put into the cell culture simultaneously.
The indirect immunofluorescence assay is a useful means for determining the number of cells productively infected with HIV [Johnson V. A., Byington R. E. HIV indirect immunofluorescence assay. In “Techniques in HIV Research”: Stockton Press, 1990. P. 87-91]. This assay is quantitative and can be done using living cells. The technique gives the possibility to determine HIV-specific antigens expressed on cell surface membranes of the virus-infected cells. On the 3rd day after infecting, cells have been transferred onto wells of the laminated multiwell slides and fixed by cold (4° C.) acetone. Then the samples with fixed cells were treated by HIV-1-seropositive serum and then by FTC-conjugated sheep anti-human IgG. The resulting effect was estimated via evaluation of percentage of positive cells that was calculated using fluorescent microscope and taking into account 200 cells. […]

rats = settings: acute toxicity; cited from earlier work
Siberian sturgeon fry = Siberian sturgeon fry treated with solution; cited from earlier work
[3] = prolonged and chronic experiments; cited from earlier work
[4] = tested on: HIV-1zmb high/rapid strain; assay: In vitro anti-HIV activity in infected cell culture (overall, three tests); assay type: cell-based
Source text: as §1, §2, §3

mice = settings: acute toxicity; cited from earlier work

C[C@H](CCCC(C)(C)O)[C@H]1CC[C@H]2[C@@H]3[C@@H](O)C=C4C[C@@H](O)CC[C@]4(C)[C@H]3CC[C@]12C [7β,25-dihydroxycholesterol]
antiviral concentration, fold lower than the highest concentration tested at which no toxicity was measurable ([1]; HIV replication in vitro): 13- to 25 fold
inhibition of viral replication [1]: inhibited viral replication at micromolar concentrations

CC(C)CCC[C@@H](C)[C@H]1CC[C@H]2[C@@H]3[C@@H](O)C=C4C[C@@H](O)CC[C@]4(C)[C@H]3CC[C@]12C [7β-hydroxycholesterol]
inhibition of viral replication [1]: inhibited viral replication at micromolar concentrations

CC(C)[C@@H](C)[C@@H](O)[C@H](O)[C@@H](C)[C@H]1CC[C@H]2[C@@H]3COC(=O)[C@H]4C[C@H](O)[C@H](O)C[C@]4(C)[C@H]3CC[C@]12C [24-epibrassinolide]
production of viral-specific antigens on the cell's surface [2]: significantly decreased production of viral-specific antigens
LD50 (rats): more than 2000 mg·kg^−1
increase of bacteriolytic activity of lysozyme in comparison with the control fish (Siberian sturgeon fry): up to 50%
γ-globulin level higher than in the control (Siberian sturgeon fry): 10 to 65%
postponed negative effects [3]: no postponed negative effects
amount of the living cells in the infected culture, higher in comparison with untreated control ([4]; 4-5th days after infecting): more than 50%
average efficient concentration as anti-HIV agent in vitro ([4]; each test done in three repetitions, listed as EBI): 10 ng/mL
LD50 (mice): more than 1000 mg·kg^−1

C[C@H](CCCC(C)(C)O)[C@H]1CC[C@H]2[C@@H]3CC=C4C[C@@H](O)CC[C@]4(C)[C@H]3CC[C@]12C [25-hydroxycholesterol]
inhibition of viral replication [1]: inhibited viral replication at micromolar concentrations

Reference: patent US20040253289A1, “Natural plant compound with anti-HIV activity” (MIKONIK TECHNOLOGIES, LTD., priority 2004, published 2004)
